The target in one experiment is MET (human) (Homo sapiens, UniProt P08581). Put plainly: MET (human) AlphaScreen kinase assay, Km of ATP. The format is biochemical. The note with it: AlphaScreen, Km of ATP; read-out: Met biochemical IC50. In outline: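 Human MET at lot-optimised concentration in 50 mM Tris pH 7.4 buffer with 1 mM DTT, compound at 1% DMSO final; enzyme starts the reaction, 60 min at RT.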

The target of another experiment is RON (human) (Homo sapiens, UniProt Q04912). Briefly: RON (human) AlphaScreen kinase assay, Km of ATP. The format is biochemical. The note with it: AlphaScreen, Km of ATP; read-out: RON biochemical IC50. In outline: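 Reaction was started with enzyme and run 30 min at RT. PT66 donor/acceptor beads in an EDTA-containing Tris pH 7.5 buffer were then added, and the signal was read after 1 h.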
Chain of RON (human) (Q04912 25-1400): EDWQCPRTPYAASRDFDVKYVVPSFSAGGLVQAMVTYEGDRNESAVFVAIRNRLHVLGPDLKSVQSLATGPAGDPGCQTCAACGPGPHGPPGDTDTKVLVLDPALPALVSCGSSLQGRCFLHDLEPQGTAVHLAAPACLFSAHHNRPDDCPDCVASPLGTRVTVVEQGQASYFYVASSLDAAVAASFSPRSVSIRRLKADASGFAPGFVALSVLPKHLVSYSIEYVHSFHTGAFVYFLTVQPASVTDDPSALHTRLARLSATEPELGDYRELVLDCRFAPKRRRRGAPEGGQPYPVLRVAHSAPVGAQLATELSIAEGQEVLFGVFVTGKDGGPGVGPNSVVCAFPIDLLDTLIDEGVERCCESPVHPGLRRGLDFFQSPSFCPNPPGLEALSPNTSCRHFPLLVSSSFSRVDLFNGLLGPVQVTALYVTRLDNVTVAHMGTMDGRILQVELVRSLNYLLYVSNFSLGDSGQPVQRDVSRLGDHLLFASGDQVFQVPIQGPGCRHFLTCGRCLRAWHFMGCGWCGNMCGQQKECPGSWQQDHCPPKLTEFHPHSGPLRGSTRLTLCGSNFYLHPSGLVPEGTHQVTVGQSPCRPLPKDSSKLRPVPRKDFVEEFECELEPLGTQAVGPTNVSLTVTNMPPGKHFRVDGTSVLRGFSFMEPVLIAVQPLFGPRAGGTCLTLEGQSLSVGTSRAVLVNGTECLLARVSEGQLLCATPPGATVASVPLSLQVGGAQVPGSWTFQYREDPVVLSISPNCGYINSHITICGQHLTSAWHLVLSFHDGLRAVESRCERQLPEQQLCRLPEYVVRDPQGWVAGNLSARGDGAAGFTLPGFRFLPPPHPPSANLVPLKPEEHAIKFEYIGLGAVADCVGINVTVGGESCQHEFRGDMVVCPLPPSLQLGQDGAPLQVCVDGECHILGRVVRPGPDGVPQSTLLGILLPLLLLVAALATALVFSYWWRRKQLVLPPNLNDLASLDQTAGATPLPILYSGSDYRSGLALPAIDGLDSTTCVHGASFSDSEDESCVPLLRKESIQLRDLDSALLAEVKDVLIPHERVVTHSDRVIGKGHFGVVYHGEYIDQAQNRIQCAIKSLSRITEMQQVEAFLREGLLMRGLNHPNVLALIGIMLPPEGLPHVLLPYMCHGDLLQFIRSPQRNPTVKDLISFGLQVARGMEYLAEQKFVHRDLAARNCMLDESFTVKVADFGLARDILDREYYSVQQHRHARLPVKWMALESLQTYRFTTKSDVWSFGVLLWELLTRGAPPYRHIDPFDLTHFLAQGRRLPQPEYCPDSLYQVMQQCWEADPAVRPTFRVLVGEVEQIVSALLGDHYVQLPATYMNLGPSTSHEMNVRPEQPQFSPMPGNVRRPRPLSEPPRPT

Chain of MET (human) (P08581 25-1390): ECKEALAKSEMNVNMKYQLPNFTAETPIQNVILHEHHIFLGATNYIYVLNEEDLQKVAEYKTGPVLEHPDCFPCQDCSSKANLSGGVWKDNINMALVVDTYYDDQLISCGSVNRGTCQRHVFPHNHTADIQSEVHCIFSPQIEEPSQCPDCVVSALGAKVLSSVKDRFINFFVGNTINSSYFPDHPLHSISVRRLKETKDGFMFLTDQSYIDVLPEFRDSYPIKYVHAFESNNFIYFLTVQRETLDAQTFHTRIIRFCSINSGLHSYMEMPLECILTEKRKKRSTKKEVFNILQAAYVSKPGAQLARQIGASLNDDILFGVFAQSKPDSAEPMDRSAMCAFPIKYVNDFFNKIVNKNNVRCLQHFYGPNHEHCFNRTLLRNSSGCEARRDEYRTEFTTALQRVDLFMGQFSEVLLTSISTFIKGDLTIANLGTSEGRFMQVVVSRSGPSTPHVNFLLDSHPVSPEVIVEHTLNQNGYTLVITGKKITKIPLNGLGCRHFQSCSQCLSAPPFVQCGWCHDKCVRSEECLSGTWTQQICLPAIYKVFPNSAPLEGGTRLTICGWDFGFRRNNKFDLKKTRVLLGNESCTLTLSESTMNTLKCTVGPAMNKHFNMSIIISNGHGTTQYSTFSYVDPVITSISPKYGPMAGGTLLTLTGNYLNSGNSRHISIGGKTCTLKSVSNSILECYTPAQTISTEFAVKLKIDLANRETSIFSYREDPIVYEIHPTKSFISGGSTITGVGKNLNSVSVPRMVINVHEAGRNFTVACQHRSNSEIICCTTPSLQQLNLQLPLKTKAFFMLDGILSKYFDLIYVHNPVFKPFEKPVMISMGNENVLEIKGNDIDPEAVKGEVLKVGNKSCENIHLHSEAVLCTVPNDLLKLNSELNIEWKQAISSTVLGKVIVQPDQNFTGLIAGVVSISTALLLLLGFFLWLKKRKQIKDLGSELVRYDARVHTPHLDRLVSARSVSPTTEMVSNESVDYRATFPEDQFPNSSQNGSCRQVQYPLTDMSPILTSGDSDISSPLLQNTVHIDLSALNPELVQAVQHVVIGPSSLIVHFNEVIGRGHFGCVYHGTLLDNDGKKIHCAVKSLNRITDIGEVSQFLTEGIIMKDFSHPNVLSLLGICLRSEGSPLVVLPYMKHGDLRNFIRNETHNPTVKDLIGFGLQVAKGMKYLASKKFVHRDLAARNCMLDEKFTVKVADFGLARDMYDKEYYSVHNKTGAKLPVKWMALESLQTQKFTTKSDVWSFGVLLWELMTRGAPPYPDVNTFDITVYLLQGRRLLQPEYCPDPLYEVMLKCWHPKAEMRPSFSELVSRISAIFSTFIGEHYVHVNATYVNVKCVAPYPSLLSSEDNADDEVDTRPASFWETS

With `CCCCS(=O)(=O)Nc1cccc(-c2coc3c(O[C@H](C)c4c(Cl)ccc(F)c4Cl)c(N)ncc23)c1` [Example 246, Butane-1-sulfonic acid (3-{6-amino-7-[(R)-1-(2,6-dichloro-3-fluorophenyl)ethoxy]-furo[3,2-c]pyridin-3-yl}phenyl)amide], the IC50 on MET (human) fell in the range of 500 to 5000 nM; on RON (human), 5000 to 20000 nM.

Regarding `Nc1ncc2c(-c3cnn(C4CCNCC4)c3)coc2c1O[C@H]1CCC[C@H]1c1ccccc1` [Example 407], the IC50 is under 500 nM at MET (human) and 500 to 5000 nM on RON (human).

Regarding `C[C@@H](Oc1c(N)ncc2c(-c3csc(C=O)c3)coc12)c1c(Cl)ccc(F)c1Cl` [Example 302, 4-{6-Amino-7-[(R)-1-(2,6-dichloro-3-fluorophenyl)ethoxy]furo[3,2-c]pyridin-3-yl}thiophene-2-carbaldehyde], the IC50 on MET (human) and on RON (human) was 500 to 5000 nM each time.

On to `C[C@@H](Oc1c(N)ncc2c(C3=CCN(C(N)=O)CC3)coc12)c1c(Cl)ccc(F)c1Cl` [Example 34, 4-{6-Amino-7-[(R)-1-(2,6-dichloro-3-fluorophenyl)ethoxy]-furo[3,2-c]pyridin-3-yl}-3,6-dihydro-2H-pyridine-1-carboxamide], for which the IC50 on MET (human) and at RON (human) was under 500 nM throughout.

Regarding `C[C@@H](O)C(=O)N1CC=C(c2coc3c(O[C@H](C)c4c(Cl)ccc(F)c4Cl)c(N)ncc23)CC1` [Example 226, (R)-1-(4-{6-Amino-7-[(R)-1-(2,6-dichloro-3-fluorophenyl)ethoxy]-furo[3,2-c]pyridin-3-yl}-3,6-dihydro-2H-pyridin-1-yl)-2-hydroxypropan-1-one], the IC50 on MET (human) and at RON (human) was under 500 nM each time.

In the case of `C[C@@H](Oc1c(N)ncc2c(-c3ccc(C(=O)N(C)C)cc3)coc12)c1c(Cl)ccc(F)c1Cl` [Example 72, 4-{6-Amino-7-[(R)-1-(2,6-dichloro-3-fluorophenyl)ethoxy]-furo[3,2-c]pyridin-3-yl}-N,N-dimethylbenzamide], the IC50 is under 500 nM at MET (human) and 500 to 5000 nM at RON (human).

For the compound `CC(Oc1c(N)ncc2c(-c3cnn(C4CCNCC4)c3)coc12)c1cc(F)cc(F)c1` (stereo not drawn) [Example 384, 7-[1-(3,5-Difluorophenyl)ethoxy]-3-(1-piperidin-4-yl-1H-pyrazol-4-yl)furo[3,2-c]pyridin-6-ylamine], the IC50 on MET (human) and at RON (human) was 500 to 5000 nM throughout.

On to `C[C@@H](Oc1c(N)ncc2c(-c3ccc(C#N)nc3)coc12)c1c(Cl)ccc(F)c1Cl` [Example 125, 5-{6-Amino-7-[(R)-1-(2,6-dichloro-3-fluorophenyl)-ethoxy]furo[3,2-c]pyridin-3-yl}pyridine-2-carbonitrile], for which the IC50 at MET (human) is 500 to 5000 nM; at RON (human) it was 5000 to 20000 nM.

With `C[C@@H](Oc1c(N)ncc2c(-c3csc(CN4CCC(O)CC4)c3)coc12)c1c(Cl)ccc(F)c1Cl` [Example 306, 1-(4-{6-Amino-7-[(R)-1-(2,6-dichloro-3-fluorophenyl)ethoxy]furo[3,2-c]pyridin-3-yl}thiophen-2-ylmethyl)piperidin-4-ol], the IC50 on MET (human) and on RON (human) was under 500 nM in each case.

For the compound `C[C@@H](Oc1c(N)ncc2c(-c3cccc(O)c3)coc12)c1c(Cl)ccc(F)c1Cl` [Example 128, 3-{6-Amino-7-[(R)-(2,6-dichloro-3-fluorophenyl)ethoxy]-furo[3,2-c]pyridin-3-yl}phenol], the IC50 at MET (human) and at RON (human) was 500 to 5000 nM in each case.

As for `C[C@@H](Oc1c(N)ncc2c(-c3cccc(N)c3)coc12)c1c(Cl)ccc(F)c1Cl` [Example 66, 3-(3-Aminophenyl)-7-[(R)-1-(2,6-dichloro-3-fluorophenyl)ethoxy]-furo[3,2-c]pyridin-6-ylamine], the IC50 at MET (human) and at RON (human) was 500 to 5000 nM in each case.

In the case of `CCN1CCC(n2cc(-c3coc4c(O[C@H](C)c5c(Cl)ccc(F)c5Cl)c(N)ncc34)cn2)CC1` [Example 278, 7-[(1R)-1-(2,6-Dichloro-3-fluorophenyl)ethoxy]-3-[1-(1-ethylpiperidin-4-yl)-1H-pyrazol-4-yl]furo[3,2-c]pyridin-6-amine], the results for the IC50 on MET (human) and at RON (human) were under 500 nM and 500 to 5000 nM, respectively.

As to `C[C@@H](Oc1c(N)ncc2c(C(N)=O)coc12)c1c(Cl)ccc(F)c1Cl` [Example 180, 6-Amino-7-[(R)-1-(2,6-dichloro-3-fluorophenyl)ethoxy]furo[3,2-c]pyridine-3-carboxamide], the IC50 on MET (human) is 500 to 5000 nM; at RON (human), 5000 to 20000 nM.

For `C[C@@H](Oc1c(N)ncc2c(-c3cccc(C(=O)NCCN(C)C)c3)coc12)c1c(Cl)ccc(F)c1Cl` [Example 74, 3-{6-Amino-7-[(R)-1-(2,6-dichloro-3-fluorophenyl)ethoxy]-furo[3,2-c]pyridin-3-yl}-N-(2-dimethylaminoethyl)benzamide], the IC50 on MET (human) and at RON (human) was under 500 nM in each case.

Regarding `C[C@@H](Oc1c(N)ncc2c(C3=CCN(C(=O)CO)CC3)coc12)c1c(Cl)ccc(F)c1Cl` [Example 142, 1-[4-{6-Amino-7-[(1R)-1-(2,6-dichloro-3-fluorophenyl)ethoxy]furo[3,2-c]pyridin-3-yl}-3,6-dihydropyridin-1(2H)-yl]-2-hydroxyethanone], the IC50 is under 500 nM at MET (human) and 500 to 5000 nM at RON (human).

In the case of `CCN1CCN(C(=O)N2CC=C(c3coc4c(O[C@H](C)c5c(Cl)ccc(F)c5Cl)c(N)ncc34)CC2)CC1` [Example 27, (4-{6-Amino-7-[(R)-1-(2,6-dichloro-3-fluorophenyl)-ethoxy]-furo[3,2-c]pyridin-3-yl}-3,6-dihydro-2H-pyridin-1-yl)-(4-ethylpiperazin-1-yl)-methanone], the IC50 at MET (human) and on RON (human) was under 500 nM each time.

As for `C[C@@H](Oc1c(N)ncc2c(-c3ccc(C(N)=O)s3)coc12)c1c(Cl)ccc(F)c1Cl` [Example 209, 5-{6-Amino-7-[(R)-1-(2,6-dichloro-3-fluorophenyl)ethoxy]-furo[3,2-c]pyridin-3-yl}-thiophene-2-carboxamide], the IC50 at MET (human) and at RON (human) was 500 to 5000 nM in each case.

`C[C@@H](Oc1c(N)ncc2c(-c3ccc(CN4CCNCC4)s3)coc12)c1c(Cl)ccc(F)c1Cl` [Example 217, 7-[(R)-1-(2,6-Dichloro-3-fluorophenyl)ethoxy]-3-(5-piperazin-1-ylmethylthiophen-2-yl)-furo[3,2-c]pyridin-6-ylamine]: the IC50 at MET (human) and at RON (human) was under 500 nM throughout.

Regarding `CC(Oc1c(N)ncc2c(-c3cnn(C4CCNCC4)c3)coc12)c1cccc(-c2cn[nH]c2)c1` (stereo not drawn) [Example 447], the IC50 at MET (human) and on RON (human) was 500 to 5000 nM throughout.

On to `C[C@@H](Oc1c(N)ncc2c(-c3cnn([C@H]4CCNC4)c3)coc12)c1c(Cl)ccc(F)c1Cl` [Example 161, 7-[(1R)-1-(2,6-dichloro-3-fluorophenyl)ethoxy]-3-{1-[(3S)-pyrrolidin-3-yl]-1H-pyrazol-4-yl}furo[3,2-c]pyridin-6-amine], for which the IC50 on MET (human) and at RON (human) was under 500 nM throughout.

As to `CC(Oc1c(N)ncc2c(-c3cnn(C4CCNCC4)c3)coc12)c1c(F)cc(Cl)cc1Cl` (stereo not drawn) [Example 372, 7-[1-(2,4-Dichloro-6-fluorophenyl)ethoxy]-3-(1-piperidin-4-yl-1H-pyrazol-4-yl)furo[3,2-c]pyridin-6-ylamine], the results for the IC50 on MET (human) and at RON (human) were under 500 nM and 500 to 5000 nM, respectively.

Values taken from US8022206B2 (OSI Pharmaceuticals, LLC, priority 2008, dated 2011).
